One experiment deals with T1, HPV-11 E1 (Human papillomavirus 11, UniProt P04014).
T1 construct: polyhistidine; made in house; host or cells: baculovirus-infected insect cells
Description: E1 ATPase SPA kinetic analysis (Km/Ki). Format: biochemical, human papilloma virus. The source says: Polyhistidine-tagged HPV-11 E1 was expressed in baculovirus-infected insect cells and purified by Ni-affinity chromatography as described in WO 99/57283 (incorporated herein by reference).
ATPase time-courses were run at different concentrations of ATP in order to determine the kinetic parameter Km(ATP) for HPV-11 E1. Reactions were run under similar conditions in both experiments, using the procedures given in Examples 1 and 2, except that the concentration of Igepal-CA630 was 0.01% rather than 0.005% and with experiment-specific changes noted below. The E1 concentration was 2 nM and the ATP concentrations ranged from 3-75 μM (TLC) or 2-50 μM (SPA), with the MgOAc concentration equal to the ATP concentration plus 0.5 mM. Stock solutions of ATP at each concentration were obtained by diluting the highest concentration solution with buffer containing 0.5 mM MgOAc; thus a constant ratio of radiolabeled to unlabeled ATP was used for all reactions. Reaction rates were measured by taking time-points from 10 or 20 to 120 minutes. To insure initial velocity conditions, time-points giving greater than 20% conversion were not used for analysis.
Total reaction volumes were 150 μL. For each time-point, 20 μL of reaction mixture was removed and combined with 40 μL of ammonium molybdate/SPA bead mixture followed by 80 μL of CsCl/citric acid. All reactions were run in triplicate. Plates were counted after overnight incubation. At the last time-point, an additional 20 μL aliquot was removed and combined with 10 μL 0.5 M EDTA. In this case, the conversion of ATP to phosphate was quantified by TLC, and the concentration of phosphate determined by TLC was compared to the cpm from the SPA procedure, after subtraction of blanks in both cases. The relationship between phosphate concentration and cpm is linear and the slope of the line was used to convert cpm values from SPA detection to concentration of phosphate produced. Rates of phosphate production at each ATP concentration were fit by nonlinear regression to the Michaelis-Menten equation using the program Grafit (V 3.01, R. Leatherbarrow).
The γ-thio phosphate analog of ATP inhibits many ATPases by a competitive mechanism. Experimental determination of the mechanism of inhibitor action requires measuring initial velocities for a number of substrate and inhibitor concentrations. The number of data points needed (several hundred) and the precision required for this experiment mean that performing the experiment by TLC detection is much more difficult and tedious. The SPA procedure works well, however. For this experiment, ATP concentrations of 5, 10, 20 and 40 μM were used, along with inhibitor concentrations of 0, 3, 6, 12 and 24 μM. Reactions were run as described for Example 9 (SPA detection). Data were processed as above and fit by nonlinear regression to an equation for competitive inhibition using GraFit. […] The plot was generated in Excel using the fitted parameters for the lines and the experimental values for points. For comparison, the data were also fit to an equation for non-competitive inhibition (equal binding of inhibitor to enzyme and enzyme-substrate complexes). […] Because of the quality of the data obtained it is possible to observe a systematic deviation between the experimental and fitted values for this second mechanism, especially at higher inhibitor concentrations.

In experiment [1] the target is HPV-6a ATPase activity (HPV-6 E1) (Human papillomavirus type 6a, UniProt Q84293). Briefly: E1 ATPase scintillation proximity assay, IC50 curves. In kind it is biochemical, human papilloma virus. To be noted: nonlinear regression; 1 μM ATP, 6 nM HPV-6 E1, 75 minutes, SPA detection; read-out: IC50 for inhibition of HPV-6a ATPase activity. On the procedure:
Radiolabeled [γ-^33P]ATP (NEN) was prepared upon receipt by diluting it 100-fold in the reaction buffer and storing it at −80° C. Material stored in this way was good for greater than one month. E1 ATPase reactions were run in a buffer consisting of 20 mM HEPES, pH 7.5, 0.05 mM EDTA and 1 mM DTT, and 0.05% Igepal CA-630 (equivalent to Nonidet P40). Volumes and concentrations given below are typical, but these can be varied somewhat with minimal effect on results, as shown in later examples. One μM ATP (Amersham Pharmacia) and 500 μM MgOAc were mixed with [γ-^33P]ATP at 100-fold dilution from the stored material (10,000 dilution from the stock), or approximately 1 nCi/μL when fresh. The actual ATP concentration contributed by [γ-^33P]ATP was approximately 1 nM; this amount could be reduced further if necessary. […]
At the desired time, 40 μL reactions were stopped by adding 20 PL of a SPA bead-AmMo mixture. […] The extent of phosphate production was then determined by scintillation counting using the TopCount (Packard). If desired, cpm can be converted to phosphate concentration by comparison of SPA results to those determined by TLC (see below) for identical reactions. […]
All solutions are made in the assay buffer described in Example 3 except that the assay buffer also contained 0.005% Igepal CA-630. […] After mixing briefly, plates were left for 90 minutes and then counted on a TopCount. […]
On the technique in general: In a scintillation proximity assay essentially only radioactivity close to the scintillant gives light.

Like-named read-outs stand apart in the source and are kept apart here.

T1 sequence (P04014 whole entry): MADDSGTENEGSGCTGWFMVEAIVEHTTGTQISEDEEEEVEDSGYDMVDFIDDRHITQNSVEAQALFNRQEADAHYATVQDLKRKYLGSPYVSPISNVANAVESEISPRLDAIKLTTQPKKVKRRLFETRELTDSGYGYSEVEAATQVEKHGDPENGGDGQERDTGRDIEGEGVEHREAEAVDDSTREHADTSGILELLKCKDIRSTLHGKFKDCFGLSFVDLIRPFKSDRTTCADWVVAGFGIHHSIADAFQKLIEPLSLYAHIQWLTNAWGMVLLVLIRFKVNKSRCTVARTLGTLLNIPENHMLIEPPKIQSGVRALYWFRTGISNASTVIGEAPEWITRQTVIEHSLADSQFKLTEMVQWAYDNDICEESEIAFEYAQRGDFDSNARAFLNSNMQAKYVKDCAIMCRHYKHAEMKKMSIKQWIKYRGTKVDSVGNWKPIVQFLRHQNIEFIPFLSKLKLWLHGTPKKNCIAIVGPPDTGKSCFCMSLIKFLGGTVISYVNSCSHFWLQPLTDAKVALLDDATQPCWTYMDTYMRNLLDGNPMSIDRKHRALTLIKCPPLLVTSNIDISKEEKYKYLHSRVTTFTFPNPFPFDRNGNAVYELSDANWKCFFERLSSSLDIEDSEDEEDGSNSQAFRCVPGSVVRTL
HPV-6a ATPase activity (HPV-6 E1), sequence (Q84293 whole entry): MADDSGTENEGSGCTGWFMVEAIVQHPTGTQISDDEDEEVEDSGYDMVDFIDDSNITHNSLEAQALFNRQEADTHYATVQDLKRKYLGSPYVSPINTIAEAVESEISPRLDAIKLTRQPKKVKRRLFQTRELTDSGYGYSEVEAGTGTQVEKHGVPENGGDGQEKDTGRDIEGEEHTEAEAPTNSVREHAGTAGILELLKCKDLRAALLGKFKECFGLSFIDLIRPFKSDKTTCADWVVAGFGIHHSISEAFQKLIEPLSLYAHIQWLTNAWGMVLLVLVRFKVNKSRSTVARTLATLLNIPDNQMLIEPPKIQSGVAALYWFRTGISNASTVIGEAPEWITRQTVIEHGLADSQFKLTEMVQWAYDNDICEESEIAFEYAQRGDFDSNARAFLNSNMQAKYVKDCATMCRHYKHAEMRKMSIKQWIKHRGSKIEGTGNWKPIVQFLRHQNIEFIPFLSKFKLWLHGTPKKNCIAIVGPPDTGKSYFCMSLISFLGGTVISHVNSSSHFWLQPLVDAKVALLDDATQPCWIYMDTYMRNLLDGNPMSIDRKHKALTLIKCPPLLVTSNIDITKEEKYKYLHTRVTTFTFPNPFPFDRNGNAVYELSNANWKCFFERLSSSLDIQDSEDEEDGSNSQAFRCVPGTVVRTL

Usually Km stands for the concentration of substrate that gives half-maximal velocity. On to `Nc1ncnc2c1ncn2[C@@H]1O[C@H](COP(=O)(O)OP(=O)(O)OP(=O)(O)O)[C@@H](O)[C@H]1O` [ATP], for which the Km on HPV-11 E1 (background statement, measured in the absence of DNA, read-out: Km (ATP) of the HPV-11 E1 ATPase) was roughly 10 µM; at HPV-11 E1 (fit to competitive inhibition, read-out: Km(ATP)) it was 6.7 ± 0.7 µM; on HPV-11 E1 (fit to non-competitive inhibition, read-out: Km(ATP)) it was 12 ± 2 µM.

Usually IC50 stands for the concentration needed to halve the response being measured. On to “adenosine-5′-O-(3-thiotriphosphate) [ATP-γ-S]”, for which the IC50 in experiment [1] was found to be 8 ± 1.6 µM. In addition, on HPV-11 E1 (comparison of competitive and noncompetitive fits), the mechanism of inhibition result was “the competitive model is more appropriate”. Moreover, the Ki(ATP-γ-S) on HPV-11 E1 (fit to non-competitive inhibition (equal binding to enzyme and enzyme-substrate complexes)) was 16 ± 2 µM.
